Experimental data: patent publication US20250049926A1, “PHARMACEUTICAL COMPOSITIONS COMPRISING MODIFIED BETACYCLODEXTRINS” (priority 2021, published 2025)

Assay: Solubility measurement of saturated solutions by HPLC at room temperature (0 h and 24 h)
Format: physicochemical
Conditions: buffered water with excipients, pH 4, aqueous with cosolvent or surfactant or cyclodextrin, thermodynamic from solid
Experimental: The vial contents are prepared starting with 2.5 mg of the compound of formula (I). The primary excipient is added followed by any further excipient and then the buffered water to a total volume of 500 μL. All components are mixed in a vortex mixer for ca. 5 minutes. If everything is dissolved an additional 2.5 mg of the compound of formula (I) is added and vortexed again for ca. 5 minutes. This is repeated until a saturated solution (suspension) is obtained.
The solubility in vial 1 is measured immediately as described below.
To measure solubility 400 μl of the suspension are taken and placed in a centrifugation device above a 0.2 μm filter. Centrifugation is performed at 14,000 rpm for 10 minutes and if necessary repeated for additional 10 minutes. The filter is removed from the vial and 100 μL is taken and diluted with 400 μL high-performance liquid chromatography (HPLC) diluent solution (see below) or diluted with 900 μL HPLC diluent solution in the event 5 mg or more of the compound of formula (I) was used. The pH of the solution is measured. A further 100 μL of the vial solution is taken and diluted with 400 μL of HPLC diluent solution or diluted with 900 μL HPLC diluent solution in the event 5 mg or more of the compound of formula (I) was used. The assay of the solution versus control stock solution is measured by HPLC and the solubility is calculated as described below. The HPLC diluent solution is 0.1% trifluoroacetic acid (TFA) in acetonitrile (ACN) and water (1:1 v/v).
All solubility tests are performed at room temperature.
The HPLC method for assessing solubility is performed as follows:
The solubility of the compound of formula (I) is calculated according to the following formula:
[formula] • Solubility=solubility of compound of formula (I) (mg/mL) • A=peak area of the compound of the sample tested • a=value of constant “a” in Linear regression equation y=ax+b • b=value of constant “b” in Linear regression equation y=ax+b • n=dilution time • Formulations for stability assessment are prepared as follows: […]

COc1cc(N2CCNCC2)ccc1Nc1ncc2c(n1)-n1ccc(C(=O)Nc3c(C)cccc3C)c1CC2 [compound of formula (I)]
solubility at 0 h (CBS 30 mM pH 4.0, NaCl 3 mg/mL, SBE-beta-CD 40 mg/mL + Kollidon 12 P188 5 mg/mL, pH exp 4.1): 2.59 mg/mL | solubility at 24 h (CBS 30 mM pH 4.0, NaCl 3 mg/mL, SBE-beta-CD 40 mg/mL + Kollidon 12 P188 5 mg/mL, pH exp 4.2): 3.71 mg/mL | solubility at 0 h (CBS 30 mM pH 4.0, NaCl 3 mg/mL, SBE-beta-CD 40 mg/mL + Na CMC 5 mg/mL, pH exp 4.1): 1.71 mg/mL | solubility at 24 h (CBS 30 mM pH 4.0, NaCl 3 mg/mL, SBE-beta-CD 40 mg/mL + Na CMC 5 mg/mL, pH exp n. a.): 2.67 mg/mL | solubility at 0 h (CBS 30 mM pH 4.0, NaCl 3 mg/mL, SBE-beta-CD 40 mg/mL + PEG 400 1 mg/mL, pH exp 4.1): 2.48 mg/mL | solubility at 24 h (CBS 30 mM pH 4.0, NaCl 3 mg/mL, SBE-beta-CD 40 mg/mL + PEG 400 1 mg/mL, pH exp 4.2): 3.73 mg/mL | solubility at 0 h (CBS 30 mM pH 4.0, NaCl 3 mg/mL, SBE-beta-CD 40 mg/mL + PEG 400 5 mg/mL, pH exp 4.1): 2.34 mg/mL | solubility at 24 h (CBS 30 mM pH 4.0, NaCl 3 mg/mL, SBE-beta-CD 40 mg/mL + PEG 400 5 mg/mL, pH exp 4.2): 3.75 mg/mL | solubility at 0 h (CBS 30 mM pH 4.0, NaCl 3 mg/mL, SBE-beta-CD 40 mg/mL + PEG 400 10 mg/mL, pH exp 4.1): 2.59 mg/mL | solubility at 24 h (CBS 30 mM pH 4.0, NaCl 3 mg/mL, SBE-beta-CD 40 mg/mL + PEG 400 10 mg/mL, pH exp 4.2): 3.79 mg/mL | solubility at 0 h (CBS 30 mM pH 4.0, NaCl 3 mg/mL, SBE-beta-CD 40 mg/mL + PEG 400 20 mg/mL, pH exp 4.1): 2.57 mg/mL | solubility at 24 h (CBS 30 mM pH 4.0, NaCl 3 mg/mL, SBE-beta-CD 40 mg/mL + PEG 400 20 mg/mL, pH exp 4.2): 3.81 mg/mL | solubility at 0 h (CBS 30 mM pH 4.0, NaCl 3 mg/mL, SBE-beta-CD 40 mg/mL + PEG 400 30 mg/mL, pH exp 4.1): 2.67 mg/mL | solubility at 24 h (CBS 30 mM pH 4.0, NaCl 3 mg/mL, SBE-beta-CD 40 mg/mL + PEG 400 30 mg/mL, pH exp 4.2): 3.86 mg/mL | solubility at 0 h (CBS 30 mM pH 4.0, NaCl 3 mg/mL, SBE-beta-CD 40 mg/mL + PEG 4000 5 mg/mL, pH exp 4.1): 2.42 mg/mL | solubility at 24 h (CBS 30 mM pH 4.0, NaCl 3 mg/mL, SBE-beta-CD 40 mg/mL + PEG 4000 5 mg/mL, pH exp 4.2): 3.67 mg/mL | solubility at 0 h (CBS 30 mM pH 4.0, NaCl 3 mg/mL, SBE-beta-CD 40 mg/mL + Soybean lecithin 10 mg/mL, pH exp 4.1): 2.52 mg/mL | solubility at 24 h (CBS 30 mM pH 4.0, NaCl 3 mg/mL, SBE-beta-CD 40 mg/mL + Soybean lecithin 10 mg/mL, pH exp 4.3): 3.6 mg/mL | solubility at 0 h (CBS 30 mM pH 4.0, NaCl 3 mg/mL, SBE-beta-CD 40 mg/mL + Tween 80 5 mg/mL, pH exp 4.1): 2.95 mg/mL | solubility at 24 h (CBS 30 mM pH 4.0, NaCl 3 mg/mL, SBE-beta-CD 40 mg/mL + Tween 80 5 mg/mL, pH exp 4.2): 4.04 mg/mL | solubility at 0 h (CBS 30 mM pH 4.0, NaCl 6 mg/mL, SBE-beta-CD 40 mg/mL + Kollidon 12 PF 2.5 mg/mL, pH exp 4.1): 2.37 mg/mL | solubility at 24 h (CBS 30 mM pH 4.0, NaCl 6 mg/mL, SBE-beta-CD 40 mg/mL + Kollidon 12 PF 2.5 mg/mL, pH exp 4.3): 3.69 mg/mL | solubility at 0 h (CBS 30 mM pH 4.0, NaCl 6 mg/mL, SBE-beta-CD 40 mg/mL + Kollidon 12 PF 5 mg/mL, pH exp 4.0): 2.51 mg/mL | solubility at 24 h (CBS 30 mM pH 4.0, NaCl 6 mg/mL, SBE-beta-CD 40 mg/mL + Kollidon 12 PF 5 mg/mL, pH exp 4.2): 3.75 mg/mL | solubility at 0 h (CBS 30 mM pH 4.0, NaCl 6 mg/mL, SBE-beta-CD 40 mg/mL + Kollidon 12 PF 10 mg/mL, pH exp 4.1): 2.52 mg/mL | solubility at 24 h (CBS 30 mM pH 4.0, NaCl 6 mg/mL, SBE-beta-CD 40 mg/mL + Kollidon 12 PF 10 mg/mL, pH exp 4.2): 3.7 mg/mL | solubility at 0 h (CBS 30 mM pH 4.0, NaCl 6 mg/mL, SBE-beta-CD 40 mg/mL + Propylene glycol 5 mg/mL, pH exp 4.1): 2.36 mg/mL
